Like-named read-outs stand apart in the source and are kept apart here.
Test system: HeLa cells
Test: HeLa cell 24 hr ploidy assay (DNA content)
Assay type: cell-based
Conditions: Homo sapiens, HeLa, 4N ploidy, average, read-out: 24h_4NPloidy EC50_IP (uM Avg)
How it was run: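 DNA content measured by Hoechst 33342 nuclear staining (0.5 ug/ml, 45 min RT) and high-content imaging of fixed HeLa cells after 24 h compound exposure in 0.25% DMSO. Fractions of 4N and >4N cells fitted to dose curves giving EC50 IP, EC50 transit, Max and Min.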

| SMILES | EC50 (HeLa cells) | EC50 |
| --- | --- | --- |
| FC(F)(F)Oc1ccc2c(Oc3ccc(Nc4nnc(-c5ccccc5)c5ccccc45)cc3)ccnc2c1 [compound 496] | 0.397 µM | – |
| COc1cc2nccc(Oc3ccc(Nc4nnc(-c5cccc(CO)n5)c5ccccc45)cc3)c2cc1OC [compound 112] | – | 0.02 µM |
| COc1cnc2c(Sc3ccc(Nc4nnc(N5CCC(F)(F)CC5)c5ccccc45)cc3)ccnc2c1 [compound 531] | 0.049 µM | – |
| N#Cc1cnc2c(Oc3ccc(Nc4nnc(-c5ccccc5)c5ccccc45)cc3)ccnc2c1 [Example 44, 8-(4-(4-phenylphthalazin-1-ylamino)phenoxy)-1,5-naphthyridine-3-carbonitrile] | > 1.2 µM | – |
| N#Cc1ccc2c(Sc3ccc(Nc4nnc(-c5ccc(Cl)cc5)c5ccccc45)cc3)ccnc2c1 [compound 248, 4-((4-((4-(4-chlorophenyl)-1-phthalazinyl)amino)phenyl)thio)-7-quinolinecarbonitrile] | 0.022 µM | – |
| Clc1ccc(-c2nnc(Nc3ccc(Oc4ncnc5[nH]cnc45)cc3)c3ccccc23)cc1 [compound 266] | > 1.2 µM | – |
| CCc1cc(-c2ccc(Cl)cc2)nnc1Nc1ccc(Oc2ccnc3cc(OC)cnc23)nc1 [compound 275, 6-(4-chlorophenyl)-4-ethyl-N-(6-(7-methoxy-1,5-naphthyridin-4-yloxy)pyridin-3-yl)pyridazin-3-amine] | 0.161 µM | – |
| N#Cc1ccc2c(Sc3ccc(Nc4nnc(-c5ccccc5)c5ccccc45)cc3)ccnc2c1 [compound 208] | 0.023 µM | – |
| Cc1ccc(-c2nnc(Nc3ccc(Sc4ccnc5ccoc45)cc3)c3ccccc23)nc1 [compound 482] | 0.036 µM | – |
| COc1cnc2c(Sc3ccc(Nc4nnc(-c5cscn5)c5ccccc45)cc3)ccnc2c1 [compound 506] | 0.067 µM | – |
| COc1cnc2c(Oc3ccc(Nc4nnc(-c5ccc(OC(C)C)cc5)c5ccccc45)cc3)ccnc2c1 [compound 137] | – | 0.85 µM |
| COc1cnc2c(Oc3ccc(Nc4nnc(-c5cc(C)ccn5)c5ccccc45)cc3)ccnc2c1 [compound 116, N-(4-((7-(methyloxy)-1,5-naphthyridin-4-yl)oxy)phenyl)-4-(4-methyl-2-pyridinyl)-1-phthalazinamine] | – | 0.179 µM |
| Cc1cc2nccc(Sc3ccc(Nc4nnc(-c5ccc(C)c(N)c5)c5ccccc45)cc3)c2o1 [compound 492] | 0.021 µM | – |
| COc1cnc2c(Oc3ccc(Nc4nnc(-c5ccc(Cl)c(C)c5)c5ccccc45)cc3)ccnc2c1 [compound 236] | 0.011 µM | – |
| CCc1cc(-c2ccccc2)nnc1Nc1ccc(Oc2ncnc3cc(OC)c(OC)cc23)cc1 [compound 148] | – | 0.039 µM |
| COc1cnc2c(Oc3ccc(Nc4nnc(-c5ccccc5)c5c4CCC5)cc3)ccnc2c1 [compound 367] | 0.039 µM | – |
| Cc1ccc(-c2nnc(Nc3ccc(Oc4ccnc5cc(C#N)ccc45)cc3)c3ccccc23)s1 [compound 162] | – | 0.004 µM |
| COc1cnc2c(Oc3ccc(Nc4nnc(-c5ccc(OC)c(C)c5)c5ccccc45)cc3)ccnc2c1 [compound 213] | 0.044 µM | – |
| COc1cnc2c(Sc3ccc(Nc4nnc(N5CCCC(C)(C)C5)c5ccccc45)cc3)ccnc2c1 [compound 555] | 0.064 µM | – |
| COc1cnc2c(Sc3ccc(Nc4nnc(-c5ccc6occc6c5)c5ccccc45)cc3)ccnc2c1 [compound 501] | 0.014 µM | – |
| COc1cnc2c(Sc3ccc(Nc4nnc(-c5cc(C)cs5)c5ccccc45)cc3)ccnc2c1 [compound 271, N-(4-(7-methoxy-1,5-naphthyridin-4-ylthio)phenyl)-4-(4-methylthiophen-2-yl)phthalazin-1-amine] | 0.004 µM | – |
| COc1cnc2c(Oc3ccc(Nc4nnc(-c5cc(C)cs5)c5ccccc45)cc3OC)ccnc2c1 [compound 567] | 0.227 µM | – |
| COc1cc2nccc(Oc3ccc(Nc4nnc(-c5cccc(C)n5)c5ccccc45)cc3)c2cn1 [compound 110] | – | 0.124 µM |
| COc1cnc2c(Oc3ccc(Nc4nnc(-c5cccc(C)n5)c5ccccc45)cn3)ccnc2c1 [compound 128, N-(6-((7-(methyloxy)-1,5-naphthyridin-4-yl)oxy)-3-pyridinyl)-4-(6-methyl-2-pyridinyl)-1-phthalazinamine] | – | > 1.2 µM |
